# What was measured:
# [1] = system: RPMI-8226 cells; experiment: Mitochondrial membrane potential (safranin O); type: cell-based, human
# Method: RPMI-8226 cells (2×10^7) were resuspended in buffer containing 130 mM KCl, 5 mM malate, 5 mM glutamate, 2 mM KPO4, 5 mM HEPES, pH 7.0 with 5 μM safranin O dye, in a stirred cuvette at 28° C. Fluorescence was measured at 495 nm excitation, 586 nm emission on a RF-5301PC spectrofluorophotometer (Shimadzu, Japan). Safranin O fluorescence was quenched following addition of 0.0025% digitonin as the dye accumulates in active mitochondria (Fiskum et al., Methods Enzymol. 322:222-234, 2000). Depolarization of the mitochondrial inner membrane caused a shift of safranin O localization from mitochondria to cytoplasm, evident as increased fluorescence.
# [2] = biological target: T1, Bcl-xL(ΔC) WT (Homo sapiens, UniProt Q07817); experiment: Pore-forming activity, calcein release from liposomes; type: biochemical
# T1 construct: inferred from Ni-NTA purification and the pET22b(+) NdeI/XhoI cloning); made in house; host or cells: Escherichia coli BL21(DE3) carrying pUB520
# Outline: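 Bcl-xL(ΔC) protein (500 nM) was added to calcein-loaded 60:40 DOPC/DOPG LUVs (60 μM lipid) in 100 mM KCl, 10 mM KOAc, pH 5.0. Fluorescence was read at 490/520 nm, with kinetics at 37 °C and dose responses at room temperature. BH3 peptides were preincubated 5 min with protein; release was expressed as % of Triton X-100 lysis.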
# [3] = system: TAMH cells that over-express Bcl-2; experiment: Sensitivity of Bcl-2 over-expressing cells to antimycin A; type: cell-based, murine; conditions: vs control cells
# [4] = system: TABX2S cells; experiment: Cellular respiration by oximetry; type: cell-based, murine; conditions: higher concentrations (above 1 μg/ml)
# Method: (§1) Briefly, TABX2S cells (over-expressing Bcl-xL) and control cells (TAMH.neo) were suspended in air-equilibrated complete medium at a density of 3 million cells per milliliter and placed in a thermostatted electrode chamber at 37° C.
# [5] = system: TAMH.neo control cells; experiment: Cellular respiration by oximetry; type: cell-based, murine; conditions: higher concentrations (above 1 μg/ml)
# Method: as §1
# [6] = biological target: T2, recombinant human Bcl-2ΔC22 (Homo sapiens, UniProt P10415); experiment: Antimycin A3 fluorescence binding and competition assay; conditions: 2 μM each, Bcl-2 3 μM, 7.5 minutes, 22.5° C.
# T2 construct: poly-His (N); made in house
# Method: In this assay, 0 to 5 μM antimycin A3 (Sigma Chemical Co., St. Louis, Mo.) was added to a physiological buffer (50 mM Tris-HCl pH 8.0, 0.2 M NaCl, 2 mM EDTA, 0.5% v/v glycerol) containing recombinant Bcl-2 or BCl-xL protein under conditions that permitted antimycin A3 to bind to the BH3-binding domain of Bcl-2 or BCl-xL (22.5° C. on a Hitachi F-2500 fluorescence spectrofluorimeter equipped with a thermostatted cell holder). […] The excitation wavelength was 335 nm, and the maximum emission wavelength for antimycin A3 was 428 nm with a slit width of 10 nm. The samples were mixed in a quartz cuvette and checked for inner filter effect over the concentration range of antimycin A3 used for this study. Blanks containing antimycin A3 at the same concentration as the experimental samples were used as controls in all measurements and necessary background corrections were made.
# Recombinant human Bcl-2ΔC22 (a recombinant human Bcl-2 with a delection of 22 amino acid residue membrane anchor sequence from the carboxyl end) and mouse Bcl-xLΔC20 (a recombinant murine BCl-xL with a delection of the 20 amino acid residue membrane anchor sequence from the carboxyl end) fused with poly-His at the N-terminus were chromatographically purified to homogeneity. The concentrations of antimycin A3 and stock solutions of recombinant proteins were quantitated using an extinction coefficient of 7.24/mM/cm at 320 nm and by Bradford assay, respectively. The stoichiometric ratio of antimycin A3 and Bcl-2 producing the maximal change in antimycin A3 fluorescence was determined with incremental addition of antimycin A3 to a 1.98 μM solution of recombinant Bcl-2 in a volume of 2.1 milliliters. […] For peptide displacement experiments, a solution of 2 μM antimycin A3 and 3 μM Bcl-2 was allowed to reach binding equilibrium at 4° C. prior to fluorescence measurements. Native peptide corresponding to the BH3 domain of Bak (72-[…]87 (SEQ ID NO:1)) or a mutant peptide with a single amino acid change (Leu78Ala-BH3) was added to the solution and the fluorescence measurements were repeated. […]
# T1 sequence (Q07817 1-211 limits assumed, stated change not applied): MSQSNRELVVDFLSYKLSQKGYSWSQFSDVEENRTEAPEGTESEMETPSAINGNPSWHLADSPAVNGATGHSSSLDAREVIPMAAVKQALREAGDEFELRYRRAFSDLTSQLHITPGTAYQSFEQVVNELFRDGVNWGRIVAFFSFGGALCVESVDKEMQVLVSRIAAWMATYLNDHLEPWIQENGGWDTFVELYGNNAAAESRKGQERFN
# T2 sequence (P10415 1-217 limits assumed, stated change not applied): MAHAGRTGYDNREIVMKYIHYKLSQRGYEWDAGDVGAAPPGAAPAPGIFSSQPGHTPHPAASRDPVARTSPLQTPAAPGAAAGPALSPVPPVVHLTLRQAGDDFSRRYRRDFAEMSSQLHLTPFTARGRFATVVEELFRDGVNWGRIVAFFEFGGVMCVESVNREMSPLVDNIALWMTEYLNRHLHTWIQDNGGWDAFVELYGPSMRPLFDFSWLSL
molecule,measurement,setting,value
2-methoxy antimycin A [2-OMeA],acute changes in mitochondrial membrane potential,[1],No acute changes
"CCCCCC[C@H]1C(=O)O[C@H](C)[C@H](NC(=O)c2cccc(NC=O)c2OC)C(=O)O[C@@H](C)[C@@H]1OC(=O)CC(C)C [2-OMeA1, 2-methoxy antimycin A1]",effect on Bcl-xL pore-forming activity,[2],inhibited
antimycin A,sensitivity to antimycin A,[3],more sensitive
same,basal oxygen consumption maintained,[4],about 20%
same,oxygen consumption,[5],almost completely inhibited
"CCCC[C@H]1C(=O)OC(C)[C@H](NC(=O)c2cccc(NC=O)c2OC)C(=O)O[C@@H](C)C1OC(=O)CC(C)C (stereo partly drawn) [2-OMeA3, Antimycin A3 methyl ether]",competition with antimycin A3 for Bcl-2,[6],competition for the antimycin A3 binding site

# — patent US20050239873A1 (priority 1999, published 2005)
